Columns and labels:
herpes = conditions: Non-Patent Literature 2; cited from earlier work
[1] = test system: liver cell model HepG2 cells; test: Cytotoxicity (MTT reagent); assay type: cell-based, human; conditions: HPH-15 1 μM, 10 μM or 50 μM, 24 hours
Procedure: It was examined whether using HPH-15 as a drug caused any cytotoxicity.
The myotube cell model L6-GLUT4myc, the liver cell model HepG2 cells, and the adipocyte model 3T3-L1 used in Example 1 were each seeded onto a 24-well plate (1×10^5 cells/well, […] of culture liquid) and cultured overnight. Then, a DMSO solution (1%) containing HPH-15 (final concentration: 1 μM, 10 μM or 50 μM) was added to the medium, and the cells were further cultured for 24 hours. As a control, only DMSO solution (1%) was added, and the cells were cultured for 24 hours in the same manner. Next, […] of MTT reagent (3-(4,5-dimethyl-2-thiazolyl)-2,5-diphenyl-2H-tetrazolium bromide: 1.1 mg/mL: Dojindo Laboratories) was added to each well, and the cells were further cultured for 4 hours. After collecting the precipitated crystals, the supernatant was removed and DMSO ([…]) was added to completely dissolve the crystals. Cytotoxicity was evaluated by measuring the absorbance (550 nm) of the solution and determining the number of viable cells.

AMPK = test: Activation of p-AMPK in mouse tissue (Western blotting); assay type: in vivo
Procedure: (§1) High-fat diet-induced obesity model mice were prepared in the same manner as in Example 7. Then, HPH-15 (10 mg/kg or 100 mg/kg, […]) dissolved in olive oil or metformin (300 mg/kg, […]) was orally administered once a day for 28 days. Olive oil alone was administered as a control. After 28 days of administration of each, equal amounts (50 mg) of tissue pieces were collected from the liver, subcutaneous fat, and muscle tissues of the high-fat diet-induced obesity model mice, transferred to 1.5 mL Eppendorf tubes, and washed twice with PBS. After washing, the tissue pieces were transferred to BIOMASHER II, […] of RIPA buffer was added, and the tissue pieces were homogenized on ice. After homogenization, the tissue pieces were centrifuged (10,000 rpm, 4° C., 5 min) and the supernatant was obtained as a protein solution. The concentration of the proteins thus obtained was corrected based on the protein concentration measured by the BCA method using bicinchoninic acid (BCA), thereby preparing samples for Western blotting. Western blotting was performed in the same manner as in Example 1 described above, and the amount of p-AMPK/AMPK was calculated.

[2] = test system: GLUT4 (glucose transporter type 4); test: Promotion of GLUT4 membrane translocation in L6-GLUT4myc; assay type: cell-based, rat; conditions: HPH-15 10 μM (1/200th of metformin 2 mM; insulin 100 nM), 24 hours
Procedure: GLUT4 (glucose transporter type 4) is involved in the uptake of glucose into cells. Thus, the relationship between HPH-15 and the membrane translocation of GLUT4 was examined using the myotube cell model L6-GLUT4myc.
The myotube cell model L6-GLUT4myc cells used in Example 1 were seeded onto a 24-well plate (1×10^5 cells/well, […] of culture liquid) and cultured overnight. Then, a DMSO solution (1%) containing HPH-15 (final concentration: 10 μM), metformin (final concentration: 2 mM), or insulin (final concentration: 100 nM) was added to the medium, and the cells were further cultured for 24 hours. As a control, only DMSO solution (1%) was added, and the cells were cultured for 24 hours in the same manner. Next, each cell was fixed for 20 minutes with a 3% paraformaldehyde solution (Tokyo Chemical Industry Co., Ltd.). The reaction was stopped with an 1% glycine solution (Merck KGaA), and blocking was performed for 15 minutes using a PBS solution containing 5% goat serum (FUJIFILM Wako Pure Chemical Corp.). […] Detection was performed using OPD reagent (o-phenylenediamine dihydrochloride: FUJIFILM Wako Pure Chemical Corp.), and the amount of GLUT4 was evaluated by measuring absorbance (492 nm).

[3] = test system: high-fat diet-induced obesity model mice; test: H&E staining of mouse tissue; assay type: in vivo
Procedure: High-fat diet-induced obesity model mice were prepared in the same manner as in Example 7. Note that the high-fat diet-induced obesity model mice develop liver damage and are thus used as a liver disease model. Then, HPH-15 (10 mg/kg or 100 mg/kg, […]) dissolved in olive oil or metformin (300 mg/kg, […]) was orally administered once a day for 28 days. Olive oil alone was administered as a control. After administration of each for 28 days, the liver, epididymis, and muscle of the high-fat diet-induced obesity model mice were stained with H&E and observed using a microscope. The results of H&E staining of the liver are shown in FIG. 12A, the results of H&E staining of the epididymis are shown in FIG. 12B, and the results of H&E staining of the muscle are shown in FIG. 12C.

[4] = test system: high-fat diet-induced obesity model mice; test: Sirius Red staining and collagen amount in mouse tissue; assay type: in vivo; conditions: HPH-15 10 mg/kg or 100 mg/kg, metformin 300 mg/kg, orally 28 days, Western blotting
Procedure: High-fat diet-induced obesity model mice were prepared in the same manner as in Example 7. Then, HPH-15 (10 mg/kg or 100 mg/kg, […]) dissolved in olive oil or metformin (300 mg/kg, […]) was orally administered once a day for 28 days. Olive oil alone was administered as a control. After 28 days of administration of each, the liver and the epididymal fat of the high-fat diet-induced obesity model mice were stained with Sirius Red and observed using a microscope.
as §1, with “Further, high-fat” for “High-fat”, “liver” for “liver, subcutaneous fat,”, “epididymal adipose” for “muscle”, “quantified using ImageJ to calculate” for “performed in the same manner as in Example 1 described above, and”, “collagen.” for “p-AMPK/AMPK was calculated.”

[5] = HPH-15 10 or 100 mg/kg orally 28 days

Which anti-herpes activity (herpes) does the source give for `CC(C)(C)SCCNC(=S)c1cccc(C(=S)NCCSC(C)(C)C)n1` [HPH-15] here?
Its anti-herpes activity is “has anti-herpes activity”.

And the “cytotoxicity (number of viable cells)” value [1]?
Its value is “no cytotoxicity was confirmed”.

And the “p-AMPK/AMPK in the liver” value (AMPK; [5])?
The value was “increased”.

And the “p-AMPK/AMPK in the muscle” value (AMPK; [5])?
Its value is “increased”.

And the “p-AMPK/AMPK in the subcutaneous fat” value (AMPK; [5])?
The value was “increased”.

And the “AMPK activation in the subcutaneous fat as compared to metformin” value (AMPK; HPH-15 10 or 100 mg/kg vs metformin 300 mg/kg, orally 28 days)?
Its value is “twice or more as compared to metformin”.

And the “amount of GLUT4 localized in the membrane” value [2]?
The value was “promoted membrane translocation of GLUT4 to the same extent as metformin or insulin”.

What about the “visible fat in liver tissue and epididymal adipose tissue (H&E)” value ([3]; HPH-15 100 mg/kg orally 28 days) of the same compound?
The value was “almost no fat was visible”.

And the “cell area ratio in the epididymal adipose tissue (size of adipocytes, H&E)” value [3, 5]?
The value was “reducing the cell area ratio”.

And the “macrophage infiltration in epididymal adipose tissue (H&E)” value [3, 5]?
The value was “does not cause macrophage infiltration”.

What about the “percentage of fat in the liver tissue (H&E)” value ([3]; HPH-15 10 or 100 mg/kg orally 28 days, compared to the control and metformin 300 mg/kg) of the same compound?
Its value is “significantly reducing the percentage of fat in the liver tissue”.

And the “tissue changes or toxicity in the muscle (H&E)” value ([3]; orally once a day 28 days, FIG. 12C)?
Its value is “no tissue changes or toxicity was observed”.

And the “amount of collagen in the epididymal adipose tissue” value [4]?
The value was “strongly reduced”.

What about the “amount of collagen in the liver tissue” value [4] of the same compound?
Its value is “strongly reduced”.

— patent US20260000655A1, “PHARMACEUTICAL COMPOSITION FOR USE IN PREVENTION OR TREATMENT OF LIFESTYLE-RELATED DISEASE” (priority 2022, published 2026)
